The values below come from US20070037752A1, “Novel alanyl-amino peptidase inhibitors for functionally influencing different cells and treating immunological, inflammatory, neuronal, and other diseases” (priority 2003, published 2007).

SMILES strings stand for the structures. Read-outs that look alike come from different tables or passages of the source.

This assay addresses alanyl aminopeptidases (APN) (Homo sapiens, UniProt P15144). In words: Inhibition of alanyl aminopeptidase enzymatic activity, fluorogenic substrate (Ala)2-rhodamine 110. It counts as biochemical. On the procedure:
The inhibition characteristics measured are referred to as IC-50 values or ID50 values (the latter marked with “*”) for said enzyme. The enzymatic activity was determined by means of the fluorogenic substrate/product (Ala)2-rhodamine 110.

[1] abbreviates: Table 3, unstarred values, read-out: IC50APN.
Where [2] appears, read: Table 9, unstarred values, read-out: IC50APN.
Setting [3] is: Table 4, unstarred values, read-out: IC50APN.
Setting [4] is: Table 3, starred values = ID50, read-out: ID50 APN (values marked with *).

Sequence of alanyl aminopeptidases (APN) (P15144 whole entry, species assumed): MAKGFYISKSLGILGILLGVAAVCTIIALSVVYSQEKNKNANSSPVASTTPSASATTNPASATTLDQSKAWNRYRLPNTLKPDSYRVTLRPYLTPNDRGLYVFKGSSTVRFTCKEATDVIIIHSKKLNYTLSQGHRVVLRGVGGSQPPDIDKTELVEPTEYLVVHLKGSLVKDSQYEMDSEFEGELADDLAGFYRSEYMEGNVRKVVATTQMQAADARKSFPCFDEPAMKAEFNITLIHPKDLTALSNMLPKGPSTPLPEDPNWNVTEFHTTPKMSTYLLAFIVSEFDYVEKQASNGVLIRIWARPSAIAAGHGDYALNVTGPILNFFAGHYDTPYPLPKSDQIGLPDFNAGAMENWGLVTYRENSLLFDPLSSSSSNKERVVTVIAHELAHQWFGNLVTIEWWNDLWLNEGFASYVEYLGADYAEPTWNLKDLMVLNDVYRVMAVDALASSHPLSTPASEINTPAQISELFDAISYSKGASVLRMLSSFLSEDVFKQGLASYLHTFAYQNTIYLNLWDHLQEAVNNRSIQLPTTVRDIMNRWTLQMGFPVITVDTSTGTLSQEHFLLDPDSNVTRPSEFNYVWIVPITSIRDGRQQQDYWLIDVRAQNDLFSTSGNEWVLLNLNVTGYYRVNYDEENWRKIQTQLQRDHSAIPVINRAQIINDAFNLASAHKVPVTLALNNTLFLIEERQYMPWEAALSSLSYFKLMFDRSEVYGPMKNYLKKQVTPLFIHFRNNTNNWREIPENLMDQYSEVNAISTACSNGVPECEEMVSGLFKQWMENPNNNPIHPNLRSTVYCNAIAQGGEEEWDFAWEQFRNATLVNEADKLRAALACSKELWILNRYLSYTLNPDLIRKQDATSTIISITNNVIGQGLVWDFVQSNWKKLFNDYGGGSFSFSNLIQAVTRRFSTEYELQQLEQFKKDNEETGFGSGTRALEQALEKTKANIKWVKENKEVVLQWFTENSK

Regarding `CCOC(=O)C1=C(N)NC2=C(CCCC2)C12C(=O)Nc1ccccc12` (centres unmarked) [A3.202], the IC50 under setting [1] was found to be 33.6 µM.

Take `CCOC(=O)c1c(C)oc2c1c1c(c3ccccc32)OCN(C2CCS(=O)(=O)C2)C1` (centres unmarked) [A9.057]: the IC50 under setting [2] was 22.3 µM.

For `C/C(=N\NC(=O)COc1ccc(C)cc1[NH+]([O-])O)c1ccco1` (centres unmarked) [A11.038], the IC50 (Table 11, read-out: IC50APN) was found to be 422 µM.

Take `COc1nncc(-c2cnnc(SC)n2)n1` [A9.033]: under setting [2], the IC50 was determined as 14.3 µM.

In the case of `CCOC(=O)C(NC(=O)c1cccc(Cl)c1)(Nc1ccc(OC)cc1OC)C(F)(F)F` (centres unmarked) [A12.040], under “Table 12, read-out: IC50APN”, the IC50 was 21.7 µM.

Take `CSCCC(Nc1ncnc2c1oc1ccccc12)C(=O)O` (centres unmarked) [A3.256]: the IC50 under setting [1] was determined as 48.4 µM.

For the compound `CC(=O)Nc1ccc(C(=O)N/N=C/c2ccc(C)o2)cc1` [A4.095], the IC50 under setting [3] worked out at 29.7 µM.

On to `Cc1cccc(C)c1Nc1c(-c2ccccc2NC(=O)Nc2cccc(Cl)c2)nc2c(C(=O)NCC(C)C)cccn12` [A3.121], for which the IC50 under setting [1] was 21.6 µM.

`COc1ccc(C2NCCS2)cc1OC` (centres unmarked) [A3.316]: the IC50 under setting [1] was found to be 92.1 µM.

On to `COc1ccc2c(C)nc(Nc3nc(C)c4ccccc4c(=O)n3)nc2c1` [A9.018], for which the IC50 under setting [2] stood at 8.9 µM.

Take `CN(C)CCCN1CCN(c2nc(N(C)CC(=O)O)c3ncn(Cc4ccc(C(F)(F)F)cc4)c3n2)CC1` [A9.060]: the IC50 under setting [2] was determined as 23 µM.

As to `COC(=O)C(NC(=O)c1ccccc1)(Nc1sc2c(c1C#N)CCC(C(C)(C)C)C2)C(F)(F)F` (centres unmarked) [A3.239], the IC50 under setting [1] was determined as 43.6 µM.

In the case of `CC(/C=N/NC(=O)c1ccco1)=C\c1ccco1` [A3.168], under setting [1], the IC50 amounted to 27.5 µM.

For the compound `Cc1ccc(C(=O)N/C(=C\c2ccco2)C(=O)N2CC3CC(C2)c2cccc(=O)n2C3)cc1` (centres unmarked) [A3.042], the IC50 under setting [1] is 11 µM.

For `CC(CCc1ccccc1)C(=O)NO` (centres unmarked) [A1.013], the IC50 (Table 1, unstarred values, read-out: IC50APN) was 25.2 µM.

Consider `CSCCC(Nc1ncnc2c1oc1ccccc12)C(=O)O` (centres unmarked) [A9.097], for which the IC50 under setting [2] was found to be 48.4 µM.

Take `CC1=C(C#N)C(=O)N(CC(C)O)C(=O)/C1=C/c1ccc(-c2ccc(Br)cc2)o1` (centres unmarked) [A3.252]: under setting [4], the IC50 is 47.2 µM.

As to `COc1cc(/C=N/NC(=O)c2cc(-c3ccco3)n[nH]2)cc(OC)c1OC` [A4.043], the IC50 under setting [3] is 17 µM.

For the compound `CC(=O)C1C(c2ccc(N(C)C)cc2)C2C(=O)N(C3CCCCC3)C(=O)N2C1c1sccc1C` (centres unmarked) [A8.036], the IC50 (Table 8, unstarred values, read-out: IC50APN) stood at 68 µM.

Regarding `CCOC(=O)C1=C2SCC(=O)N2C(N)=C(C#N)C1` [A14.003], for the setting “Table 14, read-out: IC50APN”, the IC50 worked out at 23.1 µM.

Consider `O=C(Nc1cccc(/N=C/c2cc(Br)cc(Br)c2O)c1)c1ccco1` [A3.031], for which the IC50 under setting [1] was 8.2 µM.

In the case of `COc1cc(/C=N/NC(=O)/C(=C\c2ccc(N(C)C)cc2)NC(=O)c2ccccc2)cc([N+](=O)[O-])c1O` [A4.069], the IC50 under setting [3] stood at 23 µM.

As to `O=C(CNC(=O)c1ccccc1)N/N=C/c1ccco1` [A3.259], the IC50 under setting [4] was determined as 49.4 µM.

As to `O=C(CNC(=O)c1ccccc1O)N/N=C/c1ccco1` [A4.173], the IC50 (Table 4, starred values = ID50, read-out: ID50 APN (values marked with *)) was found to be 98.8 µM.

On to `CCOc1ccccc1NC(=O)c1c(NCc2cccc(OC)c2)sc2c1CCC2` [A3.279], for which, under setting [1], the IC50 was found to be 58.4 µM.

For `Cc1ccc(/C=C(\NC(=O)c2ccccc2)C(=O)NC2CC2)o1` [A3.073], the IC50 under setting [1] was determined as 15.6 µM.

For the compound `Cc1ccc(OCC(=O)N/N=C\c2ccco2)c(C)c1` [A3.309], the IC50 under setting [4] is 81.8 µM.

Turning to `CCc1c(C)nc2c(OC)cccc2c1SCC(=O)O` [A9.082], under setting [2], the IC50 was 31.1 µM.

For the compound `O=C(CCC(=O)Nc1cccc(Cl)c1)N/N=C/c1ccco1` [A3.206], the IC50 under setting [1] was determined as 34 µM.

Take `CC1CCCCN1S(=O)(=O)c1ccc(NC(=O)/C=C/c2ccco2)cc1` (centres unmarked) [A3.103]: the IC50 under setting [1] came out at 19.9 µM.

With `CC1=C(C#N)C(O)=NC(=O)/C1=C/c1ccc(-c2ccc(Cl)cc2Cl)o1` [A13.018], the IC50 (Table 13, read-out: IC50APN) turned out to be 32.4 µM.

For `NC(=S)N/N=C/c1ccco1` [A3.261], the IC50 under setting [1] came to 50 µM.

Turning to `N/C(=N\N=C\c1ccco1)c1nonc1N` [A2.007], the IC50 (Table 2, read-out: IC50APN) was 14.6 µM.

For the compound `O=C(C1c2ccccc2Oc2ccccc21)n1cc(Cl)cn1` [A9.075], the IC50 under setting [2] is 29.1 µM.

In the case of `O=C(N/C(=C\c1ccco1)C(=O)N1CCOCC1)c1ccccc1Cl` [A9.066], the IC50 under setting [2] came out at 25.5 µM.
